The values that follow come from PubChem BioAssay AID1259408 (Genetic Toxicology Data Bank (GENE-TOX), 2018).

The series concerns GENE-TOX genotoxicity assays, various organisms and cells. The series can be described thus: GENE-TOX mutagenicity studies. The conditions noted are these: for call: Assay Type: In vivo carcinogenicity studies.
Setting [1] is: Species/Cell Type: Salmonella typhimurium (one or more of the five standard strains: TA98, TA100, TA1535, TA1537, and TA1538), Assay Type: Histidine reverse gene mutation, Ames assay, Assay Code: SALT, Evaluation Type: Evaluation A (Pre-1980).
[2] abbreviates: Species/Cell Type: Nonhuman, Assay Code: CCG+L, Evaluation Type: Evaluation A (Pre-1980).
Setting [3] is: Species/Cell Type: Nonhuman, Assay Type: Sister-chromatid exchange (SCE) in vitro, Assay Code: SC2+, Evaluation Type: Evaluation B (Post-1980).
[4] abbreviates: Species/Cell Type: Salmonella typhimurium (one or more of the five standard strains: TA98, TA100, TA1535, TA1537, and TA1538), Assay Type: Histidine reverse gene mutation, Ames assay, Assay Code: SAL+*, Activation: With metabolic activation, Evaluation Type: Evaluation A (Pre-1980).
Where [5] appears, read: Species/Cell Type: Chinese hamster ovary (CHO) cells, Assay Type: Forward gene mutation at the HPRT locus, Assay Code: CHO+, Evaluation Type: Evaluation B (Post-1980).
The mark [6] stands for this setting: Species/Cell Type: Chinese hamster lung (V79) cells, Assay Type: Forward gene mutation at the HPRT or ouabain locus, Assay Code: V79+, Evaluation Type: Evaluation A (Pre-1980).
[7] abbreviates: Species/Cell Type: Nonhuman, Assay Type: Sister-chromatid exchange (SCE) in vitro, Assay Code: SC2+D, Dose Response: With dose response, Evaluation Type: Evaluation B (Post-1980).
The mark [8] stands for this setting: Species/Cell Type: Salmonella typhimurium (one or more of the five standard strains: TA98, TA100, TA1535, TA1537, and TA1538), Assay Type: Histidine reverse gene mutation, Ames assay, Assay Code: SAL+, Evaluation Type: Evaluation A (Pre-1980).
Where [9] appears, read: Species/Cell Type: Bacillus subtilis (H17 vs M45T), Assay Type: Rec-assay, spot test, DNA effects (bacterial DNA repair), Assay Code: REXT, Evaluation Type: Evaluation A (Pre-1980).
Setting [10] is: Species/Cell Type: Human, Assay Type: Sister-chromatid exchange (SCE) in vitro, Assay Code: SC1T, Evaluation Type: Evaluation B (Post-1980).
The mark [11] stands for this setting: Species/Cell Type: Drosophila melanogaster, Assay Type: Sex-linked recessive lethal gene mutation, Assay Code: SRLT, Evaluation Type: Evaluation A (Pre-1980).
Where [12] appears, read: Species/Cell Type: Nonhuman, Assay Code: CCG+, Evaluation Type: Evaluation A (Pre-1980).
[13] abbreviates: Species/Cell Type: Syrian hamster embryo (SA7/SHE) cells, Assay Type: Cell transformation, viral enhanced, Assay Code: CT7+, Evaluation Type: Evaluation A (Pre-1980).

Calls of active or inactive are those of the source. No rule for the calls is given here.

Take `C[C@@]1(O)C=Cc2cc3c(ccc4ccccc43)c3c2[C@@]1(O)CC3`: the mutagenic call (Species/Cell Type: Chinese hamster lung (V79) cells, Assay Type: Forward gene mutation at the HPRT or ouabain locus, Assay Code: V79-, Evaluation Type: Evaluation A (Pre-1980)) was “inactive; negative” and the mutagenic call under setting [1] is “no conclusion”. For the same molecule, under “Species/Cell Type: Nonhuman, Assay Code: CCGT, Evaluation Type: Evaluation A (Pre-1980)”, the call is recorded as “no conclusion”.
For the molecule `Cc1cccc2cc3c(ccc4ccccc43)cc12`, the call under setting [2] was “active; positive”. Also, the mutagenic call was “active; positive” under setting [3]; “active; positive” under setting [4]; “inactive; negative” (Species/Cell Type: Syrian hamster embryo (SHE) cells, Assay Type: Cell transformation, clonal assay, Assay Code: CTC-, Evaluation Type: Evaluation A (Pre-1980)).
As to `Cc1ccc(N)cc1O`, the mutagenic call (Species/Cell Type: Mammalian polychromatic erythrocytes, Assay Type: Micronucleus test, chromosome aberrations, Assay Code: MNTT, Evaluation Type: Evaluation A (Pre-1980)) is given as “no conclusion”.
With `CO[C@@H]1[C@H](C)O[C@@H](O[C@@H]2C[C@H](Oc3cc(O)c4c(O)c5c(cc4c3)C[C@@H]([C@H](OC)C(=O)[C@@H](O)[C@@H](C)O)[C@H](O[C@@H]3C[C@H](OC4C[C@H](O)[C@@H](O)[C@H](C)O4)[C@@H](O)[C@H](C)O3)C5=O)O[C@H](C)[C@@H]2O)C[C@@H]1O` (stereo partly specified), under setting [5], the mutagenic call was “active; positive”.
As for `c1ccc2c(c1)-c1cc3ccc4ccccc4c3cc1C1OC21` (stereo unspecified), the mutagenic call is, setting by setting: under setting [6], “active; positive”; (Species/Cell Type: Human diploid fibroblasts, Assay Type: Unscheduled DNA synthesis (UDS) in vitro, DNA effects, Assay Code: UDHT, Evaluation Type: Evaluation A (Pre-1980)) “no conclusion”; (Species/Cell Type: Mouse prostate cells, Assay Type: Cell transformation, Assay Code: CTM+D, Dose Response: With dose response, Evaluation Type: Evaluation A (Pre-1980)) “active; positive”; under setting [7], “active; positive”; under setting [8], “active; positive”; (Species/Cell Type: Syrian hamster embryo (SHE) cells, Assay Type: Cell transformation, clonal assay, Assay Code: CTC+, Evaluation Type: Evaluation A (Pre-1980)) “active; positive”. The call under setting [2] is “active; positive”.
`COc1cc(N=Nc2ccccc2)ccc1[N+](=O)[O-]`: the mutagenic call under setting [8] is “active; positive”.
Take `CCN(CC)c1ccc2nc3ccc(N=Nc4ccc(N(C)C)cc4)cc3[n+](-c3ccccc3)c2c1`: the mutagenic call under setting [9] is “no conclusion”.
For the molecule `OCCN(CCO)CCO`, the mutagenic call (Species/Cell Type: Allium cepa, Assay Type: Chromosome aberrations, Assay Code: ALC+D, Dose Response: With dose response, Evaluation Type: Evaluation A (Pre-1980)) was “active; positive”.
As for `O=C(NO)c1ccccc1O`, the mutagenic call under setting [8] was “active; positive”.
For the molecule `CN1C[C@H](C(=O)N[C@]2(C)O[C@@]3(O)[C@@H]4CCCN4C(=O)[C@H](Cc4ccccc4)N3C2=O)C=C2c3cccc4[nH]cc(c34)C[C@H]21`, for the setting “Species/Cell Type: Rodents, Sex: Male, Assay Type: Dominant lethal test, Assay Code: DLT+, Evaluation Type: Evaluation A (Pre-1980)”, the mutagenic call is “active; positive”.
`CC(=O)Nc1ccccc1`: the mutagenic call reads like this: under setting [10], “no conclusion”; under setting [1], “no conclusion”; (Species/Cell Type: Salmonella typhimurium, Assay Type: Forward and reverse gene mutation, host-mediated assay, Assay Code: HMA-, Evaluation Type: Evaluation A (Pre-1980)) “inactive; negative”.
For the molecule `Cc1ccccc1N=Nc1c(N)ccc2ccccc12`, the mutagenic call under setting [9] is listed as “no conclusion”.
On to `COP(=S)(Oc1cc(Cl)c(Br)cc1Cl)c1ccccc1` (stereo unspecified), for which the mutagenic call under setting [3] is “active; positive”.
With `CC(=O)Nc1ccc(NC(C)=O)c2c1C(=O)c1ccccc1C2=O`, under setting [4], the mutagenic call is “active; positive”.
With `C=CC#N`, the mutagenic call was “no conclusion” under setting [11]; “active; positive” (Species/Cell Type: Escherichia coli WP2, Assay Type: Tryptophan reverse gene mutation, Assay Code: WP2+D, Dose Response: With dose response, Evaluation Type: Evaluation A (Pre-1980)); “active; positive” (Species/Cell Type: Escherichia coli WP2 UVRA, Assay Type: Tryptophan reverse gene mutation, Assay Code: WPU+, Evaluation Type: Evaluation A (Pre-1980)); “inactive; negative” (Species/Cell Type: Mammalian polychromatic erythrocytes, Assay Type: Micronucleus test, chromosome aberrations, Assay Code: MNT-, Evaluation Type: Evaluation B (Post-1980)); “active; positive” under setting [7]; “active; positive” (Species/Cell Type: Nonhuman, Assay Type: Sister-chromatid exchange (SCE) in vivo, Assay Code: SC3+D, Dose Response: With dose response, Evaluation Type: Evaluation B (Post-1980)). For the same molecule, the mutagenic call runs as follows: under setting [4], “active; positive”; under setting [13], “active; positive”; (Species/Cell Type: Syrian hamster embryo (SHE) cells, Assay Type: Cell transformation, focus assay, Assay Code: CTF+, Evaluation Type: Evaluation A (Pre-1980)) “active; positive”. For the same molecule, the call under setting [12] was “active; positive”.
In the case of `O=NN1CCC(=O)CC1`, the mutagenic call is, setting by setting: under setting [11], “no conclusion”; under setting [4], “active; positive”.
For the molecule `CN(N=O)C1=Nc2ccc(Cl)cc2C(c2ccccc2)=[N+]([O-])C1`, the mutagenic call is, setting by setting: (Species/Cell Type: Saccharomyces cerevisiae, Assay Type: Mitotic recombination or gene conversion, Assay Code: YEC+*, Activation: With metabolic activation, Evaluation Type: Evaluation A (Pre-1980)) “active; positive”; (Species/Cell Type: Salmonella typhimurium, Assay Type: Forward and reverse gene mutation, host-mediated assay, Assay Code: HMA+, Evaluation Type: Evaluation A (Pre-1980)) “active; positive”.
In the case of `Cc1cccc2ccc3cc4ccccc4cc3c12`, the mutagenic call was “active; positive” under setting [3] and “active; positive” under setting [4].
Regarding `O=Nn1c2ccccc2c2ccccc21`, the mutagenic call (Species/Cell Type: Rat primary hepatocytes, Assay Type: Unscheduled DNA synthesis (UDS) in vitro, DNA effects, Assay Code: UDP-, Evaluation Type: Evaluation A (Pre-1980)) was “inactive; negative”.
As for `CC1CO1` (stereo unspecified), the mutagenic call under setting [5] was “active; positive”; the mutagenic call (Species/Cell Type: Drosophila melanogaster, Assay Type: Sex-linked recessive lethal gene mutation, Assay Code: SRL+, Evaluation Type: Evaluation A (Pre-1980)) was “active; positive”; the mutagenic call (Species/Cell Type: Neurospora crassa, Assay Type: Reverse gene mutation, Assay Code: NER+, Evaluation Type: Evaluation A (Pre-1980)) was “active; positive”; the mutagenic call (Species/Cell Type: Nonhuman, Assay Type: Sister-chromatid exchange (SCE) in vivo, Assay Code: SC3T, Evaluation Type: Evaluation B (Post-1980)) is “no conclusion”; the mutagenic call (Species/Cell Type: Rodents, Sex: Male, Assay Type: Dominant lethal test, Assay Code: DLT-, Evaluation Type: Evaluation A (Pre-1980)) was “inactive; negative”; the mutagenic call (Species/Cell Type: Schizosaccharomyces pombe, Assay Type: Reverse gene mutation, Assay Code: YEZ+, Evaluation Type: Evaluation A (Pre-1980)) is “active; positive”. In addition, the mutagenic call under setting [13] is “active; positive”. For the same molecule, the call under setting [12] is “active; positive”.
Turning to `Cc1nc(N)cc2c1[nH]c1ccccc12`, the mutagenic call by setting is: (Species/Cell Type: Human lymphocytes, Assay Type: Sister-chromatid exchange (SCE) in vitro, Assay Code: SCL+, Evaluation Type: Evaluation B (Post-1980)) “active; positive”; (Species/Cell Type: Human, Assay Type: Sister-chromatid exchange (SCE) in vitro, Assay Code: SC1+, Evaluation Type: Evaluation B (Post-1980)) “active; positive”; under setting [7], “active; positive”.
For the molecule `CCN(CC)c1ccc(C(=C2C=CC(=[N+](CC)CC)C=C2)c2ccc(S(=O)(=O)O)cc2S(=O)(=O)[O-])cc1`, the mutagenic call (Species/Cell Type: Mammalian polychromatic erythrocytes, Assay Type: Micronucleus test, chromosome aberrations, Assay Code: MNT+, Evaluation Type: Evaluation B (Post-1980)) was “active; positive”.
On to `CC[C@@]1(O)C[C@H](O[C@H]2C[C@H](NC)[C@H](O[C@H]3C[C@H](O)[C@H](O[C@H]4CCC(=O)[C@H](C)O4)[C@H](C)O3)[C@H](C)O2)c2c(cc3c(c2O)C(=O)c2c(O)cccc2C3=O)[C@H]1C(=O)OC`, for which, under setting [1], the mutagenic call is on record as “no conclusion”.
`CCC[CH2][Sn]([CH2]CCC)([CH2]CCC)[O][Sn]([CH2]CCC)([CH2]CCC)[CH2]CCC`: where the note is “Species/Cell Type: Mammalian polychromatic erythrocytes, Assay Type: Micronucleus test, chromosome aberrations, Assay Code: MNT+U, Dose Response: Unconfirmed positive response, Evaluation Type: Evaluation B (Post-1980)”, the mutagenic call is “active; positive”.
Consider `CCCN(C)N=O`, for which the mutagenic call under setting [6] was “active; positive”.
Consider `[O]=[W](=[O])([OH])[OH]`, for which the mutagenic call (Species/Cell Type: Human lymphocytes, Assay Type: Sister-chromatid exchange (SCE) in vitro, Assay Code: SCLT, Evaluation Type: Evaluation B (Post-1980)) is given as “no conclusion” and the mutagenic call under setting [10] is reported as “no conclusion”.
